Among the data in patent publication US20050014685A1, “New compound” (FUJISAWA PHARMACEUTICAL CO., LTD., priority 2003, published 2005) are MIC values, retold here.

Usually MIC stands for the least concentration at which growth counts as inhibited. A low value points to inhibition by little substance.

Each structure is given as a SMILES string. *1 amine or outer side, *2 acyl side, *3 side chain or, on linkers, in order; H or OH if unused. Where a SMILES comes first, the peptide text is derived from it. Bridges are numbered along the chain shown (N, C = ends). [ ]: non-standard residue; d: D form. The star is where a group is joined. X2 = C[C@H]1CC[C@@H](N2CCN(c3ccc(-c4nnc(-c5ccc(C(=O)*)cc5)s4)cc3)CC2)CC1; X1 = O=C(c1ccc(-c2nnc(-c3ccc(N4CCN(C5CCCCC5)CC4)cc3)s2)cc1)*; Orn(3R-OH,Nδ-CH(CH2OH)2) = N[C@H](C(=O)O)[C@H](O)CCNC(CO)CO; hTyr(βR-OH,3-OMe) = COc1cc(C[C@@H](O)[C@H](N)C(=O)O)ccc1O; Orn(4R-OH) = O=C([C@H](C[C@@H](O)CN[*:3])N[*:1])[*:2]; Pro(3S-OH,4S-Me) = C[C@H]1CN[C@H](C(=O)O)[C@H]1O; Orn(3R-OH) = NCC[C@@H](O)[C@H](N)C(=O)O; Hyp = O=C(O)[C@@H]1C[C@@H](O)CN1

The assay deals with Candida albicans FP-633. The class given is cell-based. To be noted: FP-633, pH 7.3. The method, then: In vitro antimicrobial activity of the object compound of Examples 1, 7, 12 and 19 disclosed later was determined by MICs in mouse serum as described below.
The MIC5 in mouse serum were determined by the microdilution method using ICR mouse serum buffered with 20 mM HEPES buffer (pH 7.3) as a test medium. Inoculum suspension of 10^6 cells/ml were prepared by a hemocytometric procedure and diluted to obtain an inoculum size of approximately 1.0×10^3 cells/ml. Microplates were incubated at 37° C. for […] in 5% CO2. The MICs was defined as the lowest concentrations at which no visible growth was observed.
With `COc1cc(C[C@@H](O)[C@@H]2NC(=O)[C@@H]3C[C@@H](O)CN3C(=O)[C@H]([C@@H](C)O)NC(=O)[C@@H](NC(=O)c3ccc(-c4nnc(-c5ccc(N6CCN([C@H]7CC[C@@H](C)CC7)CC6)cc5)s4)cc3)C[C@@H](O)CNC(=O)[C@@H]3[C@@H](O)[C@@H](C)CN3C(=O)[C@H]([C@H](O)CCN)NC2=O)ccc1O` [Example 1] (X2-[Orn(4R-OH)]T[Hyp][hTyr(βR-OH,3-OMe)][Orn(3R-OH)][Pro(3S-OH,4S-Me)]; lactam 1-C), the minimum inhibitory concentration (MIC) was under 0.2 µg/mL.

On to `COc1cc(C[C@@H](O)[C@@H]2NC(=O)[C@@H]3C[C@@H](O)CN3C(=O)[C@H]([C@@H](C)O)NC(=O)[C@@H](NC(=O)c3ccc(-c4nnc(-c5ccc(N6CCN(C7CCCCC7)CC6)cc5)s4)cc3)C[C@@H](O)CNC(=O)[C@@H]3[C@@H](O)[C@@H](C)CN3C(=O)[C@H]([C@H](O)CCN)NC2=O)ccc1O` [Example 7] (X1-[Orn(4R-OH)]T[Hyp][hTyr(βR-OH,3-OMe)][Orn(3R-OH)][Pro(3S-OH,4S-Me)]; lactam 1-C), for which the MIC is under 0.2 µg/mL.

Compound `COc1cc(C[C@@H](O)[C@@H]2NC(=O)[C@@H]3C[C@@H](O)CN3C(=O)[C@H]([C@@H](C)O)NC(=O)[C@@H](NC(=O)c3ccc(-c4nnc(-c5ccc(N6CCN([C@H]7CC[C@@H](C)CC7)CC6)cc5)s4)cc3)C[C@@H](O)CNC(=O)[C@@H]3[C@@H](O)[C@@H](C)CN3C(=O)[C@H]([C@H](O)CCNC(CO)CO)NC2=O)ccc1O` [Example 19] (X2-[Orn(4R-OH)]T[Hyp][hTyr(βR-OH,3-OMe)][Orn(3R-OH,Nδ-CH(CH2OH)2)][Pro(3S-OH,4S-Me)]; lactam 1-C) had an MIC of under 0.2 µg/mL.
